According to patent US20140335052A1, “COMBINATION THERAPY FOR TREATING HCV INFECTION IN AN HCV-HIV COINFECTED PATIENT POPULATION” (BOEHRINGER INGELHEIM INTERNATIONAL GMBH, priority 2012, published 2014):
Marks after values point to notes of the source that are not given here.

Experiments:
[1] = Phase III trial of FDV plus PegIFN/RBV in HCV/HIV coinfected patients: safety (adverse events, HIV RNA suppression); assay type: in vivo, human
Description: (§1) Safety and Efficacy of 120 mg and 240 mg Compound (1) Once Daily in Combination With Pegylated Interferon Alpha 2a (PegIFN) and Ribavirin (RBV) for Treatment of Chronic Hepatitis C (HCV) Genotype 1 Infection in HIV/HCV Co-infected Patients. A Multinational, Randomised, Parallel Group, Open-label Trial.
(§2) The aim of this trial is to evaluate the efficacy and the safety of Compound (1) given for 12 or 24 weeks in combination with PegIFN/RBV given for 24 or up to 48 weeks in HCV treatment-naive or relapsers patients coinfected with HIV. Patients who achieve reduction of HCV viral load according to Early Treatment Success (ETS) criteria will be randomized 1:1 to stop triple therapy at 24 weeks, or continue PegIFN/RBV for 48 week treatment duration. Patients without ETS continue PegIFN/RBV for 48 week treatment duration.
(§3) Individuals co-infected with HCV/HIV who were HCV treatment-naïve (TN) or relapsed after previous HCV therapy were randomized to receive FDV 120 or 240 mg QD for 12 or 24 weeks, in combination with PegIFN (180 μg once weekly) and weight-based RBV for 24 or 48 weeks (response-guided). Patients on efavirenz- or PI-based antiretroviral therapy (ART) were allocated to receive FDV 240 mg or 120 mg QD, respectively; those receiving other ART or no ART were randomized to either FDV dose. Interim data remains blinded for FDV dose. Week 12 interim data are presented.
HCV RNA was BLD at Week 4/Week 12 in 64%/64% of patients not on ART, and in 63%/85% of patients receiving ART. […] For example, in a prior study in HCV GT1 mono-infected TN patients treated with 240 mg QD FDV plus PegIFN/RBV (Boehringer Ingelheim, data on file, Clinical Trial Report for study 1220.5, U12-2567-01), HCV RNA was BLQ at week 4 and BLD at week 12 in 94% (133/142) and 93% (132/142) of patients, respectively. […] These preliminary on-treatment efficacy data are promising given that a) 17% of the coinfected patients had cirrhosis (patients with cirrhosis were not included in the 1220.5 study), b) preliminary efficacy data in HCV/HIV coinfected represent sponsor-blinded results of both FDV dose groups (e.g., 120 mg QD and 240 mg QD FDV), and c) the HCV GT1/HIV co-infected patient population is historically a more difficult-to-treat patient population with substantially lower HCV cure rates with the current standard of care treatment of pegIFN and RBV when compared to HCV GT1 monoinfected patients. The most frequent adverse events (AEs) were those known for PegIFN/RBV treatment: nausea (37%), fatigue (33%) and diarrhea (27%). Serious AEs were reported in 32 (10%) patients (including 2 deaths; none considered related to study medications). To date, 18 patients discontinued early due to AEs.

[2] = test system: HCV genotype 1; experiment: Phase III trial of FDV plus PegIFN/RBV in HCV/HIV coinfected patients: virologic response (plasma HCV RNA), Week 12 interim data; assay type: in vivo, human; details: for Virologic response Week 4 BLD / Virologic response Week 12 BLD: HCV RNA <15 IU/mL, not detected; for Virologic response Week 4 BLQ / Virologic response Week 12 BLQ: HCV RNA <25 IU/mL; for Virologic response Week 4 BLQ: FDV 120 or 240 mg QD (dose blinded) plus PegIFN/RBV; for ETS (Week 4 BLQ and Week 8 BLD): early treatment success
Description: For the clinical trial described below, the Compound (1) drug product will be administered as a softgel capsule lipid-based formulation containing Compound (1) sodium salt. All references to “Compound (1)” in the below clinical study is the sodium salt form.
as §1, §2
• Sustained Virological Response (SVR): Plasma Hepatitis C Virus (HCV) Ribonucleic Acid (RNA) level <25 IU/mL, undetected at week 12 after the planned treatment duration.
HCV RNA level<25 IU/mL (undetected) 24 weeks after the originally planned treatment duration. • Early Treatment Success (ETS): Plasma HCV RNA level<25 IU/mL (detected or undetected) at Week 4 and HCV RNA<25 IU/mL, undetected at Week 8 and have not discontinued any study drug prior to week 24. • Alanine Aminotransferase normalisation: Alanine Aminotransferase in normal range 24 weeks after the end of the originally planned treatment duration
Inclusion criteria (selected): • 1. Chronic hepatitis C (HCV) genotype 1 infection • 2. Chronic Human Immunodeficiency Virus (HIV)-1 infection • 3. HCV treatment naive or HCV treatment experienced but only relapsers • 4. Age 18 to 70 years • 5. […] HCV viral load >1.000 IU/mL • 7. No AIDS-defining illness during 6 months prior to screening Exclusion criteria (selected): • 1. HCV infection of mixed genotype (1/2, 1/3, 1/4) • 2. Evidence of acute or chronic liver […] • 3. Hepatitis B virus (HBV) infection with presence of HBs-Ag • 4. Active malignancy or history or malignancy within the last 5 years • 5. Received concomitant systemic antiviral (other than antiretroviral), hematopoietic growth factor or immunomodulatory treatment in 28 days prior enrollment. • 6. Decompensated liver disease, as evidenced by ascites, hepatic encephalopathy, esophageal variceal bleeding, and/or laboratory values that add up to >/=7 points according tho the Child-Turcotte-Pugh classification • 7. Hemoglobin </=11 g/dL for women and </=12 g/dL for men • 8. Active autoimmune disease, including autoimmune hepatitis • 9. Known hypersensitivity to any ingredient of the study drugs
as §3

[3] = test system: HCV GT1; details: HCV GT1 mono-infected TN patients; 240 mg QD FDV plus PegIFN/RBV; study 1220.5; cited from earlier work
[4] = HCV/HIV coinfected patients (308 treated), interim
[5] = HCV/HIV co-infected TN patient population, interim data restated in text, FDV plus PegIFN/RBV
[6] = Relapsers (N = 69), FDV plus PegIFN/RBV
[7] = TN patients (N = 239), FDV plus PegIFN/RBV
[8] = Total (N = 308), FDV plus PegIFN/RBV
[9] = patients not on ART, FDV plus PegIFN/RBV
[10] = patients receiving ART, FDV plus PegIFN/RBV

Question: With `C=C[C@@H]1C[C@]1(NC(=O)[C@@H]1C[C@@H](Oc2cc(-c3csc(C(=O)NC(C)C)n3)nc3c(Br)c(OC)ccc23)CN1C(=O)[C@@H](NC(=O)OC1CCCC1)C(C)(C)C)C(=O)O` [FDV, 1-{[4-[8-Bromo-2-(2-isopropylcarbamoyl-thiazol-4-yl)-7-methoxy-quinolin-4-yloxy]-1-(R)-(2-cyclopentyloxycarbonylamino-3,3-(S)-dimethyl-butyryl)-pyrrolidine-(S)-2-carbonyl]-amino}-2-(S)-vinyl-cyclopropane-(R)-carboxylic acid] as the compound, how does the “Adverse event: diarrhea” value [1, 4] read?
Answer: Its value is 27%.

Question: And the “Adverse event: fatigue” value [1, 4]?
Answer: The value was 33%.

Question: What about the “Adverse event: nausea” value [1, 4] of the same compound?
Answer: Its value is 37%.

Question: And the “Serious AEs reported, number of patients” value [1, 4]?
Answer: Its value is 32 patients.

Question: What about the “Serious AEs reported, share of patients” value [1, 4] of the same compound?
Answer: Its value is 10%.

Question: What about the “Deaths (among serious AEs; none considered related to study medications)” value ([1]; HCV/HIV coinfected patients, interim) of the same compound?
Answer: Its value is 2 deaths.

Question: And the “Patients discontinued early due to AEs” value ([1]; HCV/HIV coinfected patients, to date (interim))?
Answer: The value was 18 patients.

Question: And the “Loss of HIV RNA suppression” value ([1]; patients on ART)?
Answer: The value was “No patient on ART experienced loss of HIV RNA suppression”.

Question: What about the “Early virologic response rates” value ([2]; HCV GT1 patients coinfected with HIV, Weeks 4 and 12, FDV plus PegIFN/RBV, interim analysis) of the same compound?
Answer: Its value is “high early virologic response rates”.

Question: What about the “HCV RNA BLD at week 12, patients” value [2, 5] of the same compound?
Answer: The value was 82%.

Question: And the “HCV RNA BLQ at week 4, patients” value [2, 5]?
Answer: Its value is 80%.

Question: What about the “Virologic response Week 4 BLD” value [2, 6] of the same compound?
Answer: The value was 51 (74) n (%).

Question: And the “Virologic response Week 12 BLD” value [2, 6]?
Answer: The value was 63 (91) n (%).

Question: And the “Virologic response Week 4 BLQ” value ([2]; Relapsers (N = 69))?
Answer: The value was 63 (91)^b n (%).

Question: What about the “Virologic response Week 12 BLQ” value [2, 6] of the same compound?
Answer: The value was 64 (93)^d n (%).

Question: And the “ETS (Week 4 BLQ and Week 8 BLD)” value [2, 6]?
Answer: Its value is 61 (88) n (%).

Question: What about the “Virologic response Week 4 BLD” value [2, 7] of the same compound?
Answer: The value was 143 (60) n (%).

Question: What about the “Virologic response Week 12 BLD” value [2, 7] of the same compound?
Answer: The value was 195 (82) n (%).

Question: And the “Virologic response Week 4 BLQ” value ([2]; TN patients (N = 239))?
Answer: Its value is 191 (80)^a n (%).

Question: And the “Virologic response Week 12 BLQ” value [2, 7]?
Answer: The value was 206 (86)^c n (%).

Question: And the “ETS (Week 4 BLQ and Week 8 BLD)” value [2, 7]?
Answer: The value was 184 (77)^e n (%).

Question: What about the “Virologic response Week 4 BLD” value [2, 8] of the same compound?
Answer: The value was 194 (63) n (%).

Question: What about the “Virologic response Week 12 BLD” value [2, 8] of the same compound?
Answer: The value was 258 (84) n (%).

Question: What about the “Virologic response Week 4 BLQ” value ([2]; Total (N = 308)) of the same compound?
Answer: Its value is 254 (82) n (%).

Question: What about the “Virologic response Week 12 BLQ” value [2, 8] of the same compound?
Answer: The value was 270 (88) n (%).

Question: And the “ETS (Week 4 BLQ and Week 8 BLD)” value [2, 8]?
Answer: Its value is 245 (80) n (%).

Question: And the “HCV RNA BLD at Week 4, patients” value [2, 9]?
Answer: Its value is 64%.

Question: What about the “HCV RNA BLD at week 12, patients” value [2, 9] of the same compound?
Answer: The value was 64%.

Question: And the “HCV RNA BLD at Week 4, patients” value [2, 10]?
Answer: The value was 63%.

Question: What about the “HCV RNA BLD at week 12, patients” value [2, 10] of the same compound?
Answer: The value was 85%.

Question: And the “HCV RNA BLD at week 12, number of patients of total” value [3]?
Answer: The value was 132/142.

Question: And the “HCV RNA BLD at week 12, patients” value [3]?
Answer: The value was 93%.

Question: And the “HCV RNA BLQ at week 4, number of patients of total” value [3]?
Answer: The value was 133/142.

Question: What about the “HCV RNA BLQ at week 4, patients” value [3] of the same compound?
Answer: The value was 94%.
